Reference: US7977348B2, “Polymorphic forms of imatinib mesylate and processes for preparation of novel crystalline forms as well as amorphous and form α” (Sicor Inc., priority 2006, dated 2011)

Legend:
[1] = Stability of the crystalline form under pressure and under heating; details: solid form
[2] = Tablet pressing followed by PXRD analysis of the solid form; type: physicochemical; details: 200 mg tablet with 86 mg imatinib mesylate substance and excipients
Experimental: XRD diffraction was performed on X-Ray powder diffractometer: Philips X'pert Pro powder diffractometer, Cu-tube, scanning parameters: CuKα radiation, λ=1.5418 Å. Continuous scan at a rate of: 0.02° 2theta/0.3 sec.
Form V, having the main PXRD peaks at 9.9, 11.7, 13.3, 16.6, and 22.1±0.2 degrees two-theta, and all the components presented in the below table were weighed together and mixed to obtain a tablet.
Form X, having the main PXRD peaks at 6.0, 8.6, 11.4, 14.2, and 18.3±0.2 degrees two-theta, and all the components presented in the below table were weighed together and mixed to obtain a tablet.
Amorphous Imatinib mesylate and all the components presented in the below table were weighed together and mixed to obtain a tablet.

[3] = Particle size of the crystalline form; type: physicochemical
[4] = Moisture sensitivity / hygroscopicity of the solid phase noted during drying; type: physicochemical; details: filter cake dried under nitrogen stream
Experimental: Imatinib base (3 g, 0.0061 mole) was suspended in dry ethanol (60 ml). The suspension was cooled to −40° C. and then an ethanol-solution of methanesulfonic acid (0.591 g in 3.59 ml; 0.0061 mole) was added at once. Exactly after 5 min of stirring at −40° C. the seeding crystal (Form IV, 0.1 g) was put into the suspension. The stirring was maintained for additional 25 minutes in the temperature range from −40° C. to −35° C. Then the suspension was let to stay in freezer at −28° C. for 14 hours. In the course of standing, the major part of crystalline phase was created—important requirement is absence of motion. After standing the suspension was diluted with MTBE (50 ml) and crystalline product was filtered. […] Imatinib mesylate (Form IV) was obtained (3.61 g; yield: 90.1%).
Imatinib base (75 g, 0.152 mole) was placed into double-jacketed glass-reactor and suspended with water-1,3-dioxolane mixture (37.5 ml: 712.5 ml). The content of the reactor was kept (for all the time) under gentle nitrogen stream. The temperature was adjusted at 20° C., undiluted methanesulphonic acid (14.21 g, 0.148 mole) was added (at once or dropwise during a few minutes). The two-phase liquid was stirred cca 50 min at 20° C. […] The drying process was monitored by measuring LOD (loss on drying)—it was finished when LOD reached 11-12%. […]

stability under pressure [1] | stable under heating up to a temperature of [1] [°C] | solid form found by PXRD after the tablet was pressed [2] | particle size [3] | hygroscopicity / moisture sensitivity of solid phase [4] | SMILES
stable under pressure | ≤ 80 | belong to form V | – | – | CS(=O)(=O)O.Cc1ccc(NC(=O)c2ccc(CN3CCN(C)CC3)cc2)cc1Nc1nccc(-c2cccnc2)n1 [Form V, 4-(4-methylpiperazin-1-ylmethyl)-N-[4-methyl-3-[(4-pyrinin-3-yl)pyrimidin-2-yloamino]phenyl]benzamide mesylate]
– | – | belong to form X | less than 100 microns | – | CS(=O)(=O)O.Cc1ccc(NC(=O)c2ccc(CN3CCN(C)CC3)cc2)cc1Nc1nccc(-c2cccnc2)n1 [Form X, 4-(4-methylpiperazin-1-ylmethyl)-N-[4-methyl-3-[(4-pyrinin-3-yl)pyrimidin-2-yloamino]phenyl]benzamide mesylate]
– | – | – | less than 100 microns | very hydroscopic | CS(=O)(=O)O.Cc1ccc(NC(=O)c2ccc(CN3CCN(C)CC3)cc2)cc1Nc1nccc(-c2cccnc2)n1 [Form VI, 4-(4-methylpiperazin-1-ylmethyl)-N-[4-methyl-3-[(4-pyrinin-3-yl)pyrimidin-2-yloamino]phenyl]benzamide mesylate]
– | – | retaining the amorphous form | – | – | CS(=O)(=O)O.Cc1ccc(NC(=O)c2ccc(CN3CCN(C)CC3)cc2)cc1Nc1nccc(-c2cccnc2)n1 [Amorphous Imatinib mesylate, 4-(4-methylpiperazin-1-ylmethyl)-N-[4-methyl-3-[(4-pyrinin-3-yl)pyrimidin-2-yloamino]phenyl]benzamide mesylate, reference compound]

The remaining lines, values behind:

SMILES | stability under pressure [1] | stable under heating up to a temperature of [1] [°C] | solid form found by PXRD after the tablet was pressed [2] | particle size [3] | hygroscopicity / moisture sensitivity of solid phase [4]
CS(=O)(=O)O.Cc1ccc(NC(=O)c2ccc(CN3CCN(C)CC3)cc2)cc1Nc1nccc(-c2cccnc2)n1 [Form IV, 4-(4-methylpiperazin-1-ylmethyl)-N-[4-methyl-3-[(4-pyrinin-3-yl)pyrimidin-2-yloamino]phenyl]benzamide mesylate] | – | – | – | less than 100 microns | moisture sensitive
CS(=O)(=O)O.Cc1ccc(NC(=O)c2ccc(CN3CCN(C)CC3)cc2)cc1Nc1nccc(-c2cccnc2)n1 [Form VII, 4-(4-methylpiperazin-1-ylmethyl)-N-[4-methyl-3-[(4-pyrinin-3-yl)pyrimidin-2-yloamino]phenyl]benzamide mesylate] | – | – | – | less than 100 microns | –
